# Patent US6696436B1, “B-homoestra-1,3,5(10)-trienes as modulators of tubulin polymerization” (The United States of America as represented by the …, priority 1999, dated 2004)
# “Also recorded” adds a separate entry of the source.
# Key:
# [1] = tested on: chick embryo chorioallantoic membrane; experiment: Chick embryo chorioallantoic membrane (CAM) assay; assay type: in vivo; conditions: 100 mg disk, after 48 hours
# Procedure: Anti-angiogenic activity is evaluated in vivo by testing the ability of a compound to inhibit the proliferation of new blood vessel cells (angiogenesis). A suitable assay is the chick embryo chorioallantoic membrane (CAM) assay described by Crum et al., Science 230:1375 (1985). See also, U.S. Pat. No. 5,001,116, which is hereby incorporated by reference in its entirety. Briefly, fertilized chick embryos are removed from their shell on day 3 or 4, and a methylcellulose disc containing the drug is implanted on the chorioallantoic membrane. The embryos are examined 48 hours later and, if a clear avascular zone appears around the disc, the diameter of that zone is measured.
# tubulin [2] = tested on: T1, tubulin; experiment: Tubulin polymerization inhibition in vitro (turbidity at 350 nm); assay type: biochemical; conditions: for IC50: 1.0 M glutamate, 10 μM tubulin
# T1 construct: other: 1.0 M glutamate, 10 μM tubulin; Effect on tubulin polymerization / microtubule assembly
# Procedure: Microtubule assembly is followed in a temperature controlled recording spectrophotometer. For details and a discussion, see R. D'Amato et al., Proc Natl Acad Sci USA, 91:3964-3968 (1994).
# A typical reaction mixture, which will have a final reaction volume of […], contains 1.0 M monosodium glutamate (pH 6.6), 1.0 mg/ml (10 μM) tubulin, 1.0 MM MgCl2, 4% (v/v) dimethylsulfoxide, and a compound to be tested at the desired concentration (typically 0.1 to 100 μM). The reaction mixtures are incubated for 15 min. at 37° C. and then chilled on ice. After addition of 10 μl 12.5 mM GTP (and, optionally, 0.33 mg/ml microtubule-associated proteins, or MAPs) to initiate polymerization, each reaction mixture is transferred to a cuvette at 0° C., and a baseline established. At time zero, the temperature controller of the spectrophotometer is set to a target temperature, typically between 25 and 37° C. Microtubule assembly is monitored by observing an increase in turbidity at 350 nm as the temperature of the reaction mixture rises to the set target temperature.
# The results are presented in Table 1 as IC50 values (μM) for inhibition of tubulin polymerization. Alternatively, inhibition of microtubule assembly can be detected by transmission electron microscopy, as described in U.S. Pat. No. 5,504,074 which is hereby incorporated by reference in its entirety.
# tubulin [3] = tested on: T2, tubulin; experiment: Enhancement of glutamate- or MAP-induced tubulin assembly, turbidimetric curves (FIGS. 4 and 5); assay type: biochemical; conditions: for Effect on MAP-induced tubulin assembly: 0.75 mg/ml MAPs, 1.0 mg/ml tubulin, 25° C.
# T2 construct: Activity in room temperature assay; other: no polymerization in the absence of drug; other: GTP-only system, critical concentrations
# Procedure: In those cases where acceleration of tubulin polymerization is observed, an IC50 value for inhibition of polymerization is of course not derivable. Results for such compounds may be presented in the form of turbidimetric curves, e.g. as presented in FIGS. 4 and 5 for representative compounds 13 and 18.
# FIG. 4: Each reaction mixture contained 0.8 M glutamate (pH 6.6), 0.4 mM GTP, 12 μM (1.2 mg/ml) tubulin, 4% (v/v) dimethyl sulfoxide, and compound 13 or 18 as indicated. Baselines were established at 0°, and at time zero the temperature controller was set at 26°. At the time indicated by the dashed line, the temperature controller was set at 0°. A. Curve 1, no drug; curve 2, 2 μM compound 13; curve 3, 5 μM 7; curve 4, 10 μM 7; curve 5, 40 μM 7; curve 6, 40 μM 14. B. Curve 1, no drug; curve 2, 2 μM compound 18; curve 3, 5 μM 18; curve 4, 10 μM 18; curve 5, 40 μM 18.
# FIG. 5: Each reaction mixture contained 0.1 M Mes (pH 6.9 with NaOH in 0.5 M stock solution), 0.1 mM GTP, 10 μM (1.0 mg/ml) tubulin, 0.75 mg/ml heat-treated MAPs, 4% dimethyl sulfoxide, and drug as indicated. […] There was no change in turbidity in any reaction mixture. At this point the temperature controller was set at 10°, and subsequent temperature changes, as indicated, were made at the times indicated by the vertical dashed lines. Curve 1, no drug; curve 2, 10 μM paclitaxel; curve 3, 10 μM compound 13; curve 4, 20 μM 7; curve 5, 40 μM 7; curve 6, 10 μM compound 18.
# tubulin [4] = tested on: T2, tubulin; experiment: Tubulin polymerization inhibition in vitro (turbidity at 350 nm); assay type: biochemical; parameters: key: *: Accelerates tubulin polymerization; conditions: no IC50 derivable
# tubulin [5] = tested on: T2, tubulin; experiment: Enhancement of glutamate- or MAP-induced tubulin assembly, turbidimetric curves (FIGS. 4 and 5); assay type: biochemical
# tumor cells = experiment: Inhibition of cell growth in the NCI Developmental Therapeutics Program tumor cell screen; assay type: cell-based; conditions: mean graph midpoint for all cell lines tested
# Procedure: The compounds of the invention were tested for inhibition of cell growth in the established tumor cell screen of the National Cancer Institute Developmental Therapeutics Program. See Boyd et al., Drug Dev. Res., 34:91-109 (1995). Results are presented in Table 1 as the “MGM” values (mean graph midpoint, in μM, for all cell lines tested).
# tubulin [6] = tested on: T2, tubulin; experiment: Critical concentration of tubulin for assembly, turbidimetric (FIG. 6); assay type: biochemical
# Procedure: FIG. 6 presents critical concentrations, obtained at 30° C., of tubulin with paclitaxel and compound 13. A: MAPs -and GTP-dependent assembly without drug and in the presence of 10 μM paclitaxel or 10 μM 13. B: GTP-dependent, MAP-independent assembly with 10 μM paclitaxel or 10 μM 13.
# Measurement of the critical concentration with and without MAPs with paclitaxel, and again with 13, was therefore carried out to provide some idea of the comparative activity of these agents. The data are presented in FIG. 6, which yield critical concentrations, obtained at 30° C., of 1.4, 0.06, and 0.50 mg/ml for MAP-and GTP-dependent assembly without drug and in the presence of 10 μM paclitaxel or 10 μM 13, respectively, and 0.20 and 1.4 mg/ml for GTP-dependent, MAP-independent assembly with 10 μM paclitaxel or 10 μM 13. […] (A constant weight ratio of MAPs to tubulin of 1:3 was used, because the suboptimal concentration of MAPs caused greater differences in the critical concentrations obtained.) Reaction mixtures (0.25 ml) contained 0.1 M Mes (pH 6.9), 100 μM GTP, 4% dimethyl sulfoxide, the indicated tubulin concentration (with heat-treated MAPs in 1:3 weight ratio to the tubulin, panel A only), and either 10 μM paclitaxel (▴), 10 μM compound 13 (◯), or no drug (▾). Cuvette contents were equilibrated at 0°, drugs were added, temperature was jumped to 30° (about one min), and the turbidity changes after a 20 min incubation measured.
# tubulin [7] = tested on: T2, tubulin; experiment: Polymer morphology by electron microscopy; assay type: biochemical; conditions: 40 μM 13 or 10 μM paclitaxel
# Excerpt: It was possible that compounds 13 and 18 were not actually acting like paclitaxel in enhancing microtubule assembly and in stabilizing the microtubules formed in the course of the turbidity studies shown in FIG. 4, but that these agents were causing formation of polymers of aberrant morphology and temperature stability different from microtubules, such as occurs with vinca alkaloids. Polymer morphology was examined by electron microscopy. […] Even more important, when the reaction mixtures were returned to 0° C. for 15 min, no microtubules were visualized on grids prepared from the reaction mixture without drug.
IC50 (tubulin [2]) [µM],melting point [°C],Compound,Cytotoxicity (MGM μM) (tumor cells) [µM],also measured
–,–,COc1cc2c(cc1O)CC[C@@H]1[C@@H]2CC[C@]2(C)[C@@H](O)CC[C@@H]12 [2-methoxyestradiol],–,Inhibition of cell mitosis and growth of new blood vessels [1]: inhibit cell mitosis and the growth of new blood vessels
> 40,210 to 212,"CCOc1cc2c(cc1O)CC(=O)CC1C2CCC2(C)C(O)CCC12 (stereo not drawn) [Compound 9, B-Homo-3,170β-dihydroxy-2-ethoxyestra-1,3,5(10)-triene-7-one]",–,–
> 40,–,"CCOc1cc2c(cc1O)CC(=NNS(=O)(=O)c1ccc(C)cc1)CC1C2CCC2(C)C(O)CCC12 (stereo not drawn) [Compound 10, B-Homo-2-ethoxy-3,17β-dihydroxyestra-1,3,5(10)-triene-7-one toluenesulfonyl-hydrazone]",–,–
1.3,86 to 88,"CCOc1cc2c(cc1O)CCCC1C2CCC2(C)C(O)CCC12 (stereo not drawn) [Compound 11, B-Homo-2-ethoxy-3.17β-estradiol]",–,Effect on tubulin polymerization / microtubule assembly (tubulin [2]): inhibit tubulin polymerization
> 40,–,"CCOc1cc2c(cc1O)C(=O)CCC1C2CCC2(C)C(O)CCC12 (stereo not drawn) [Compound 14, B-Homo-2-ethoxy-6-oxoestra-1,3,5(10)-trien-3,17β-diol]",–,Effect on glutamate- and MAP-induced tubulin assembly (tubulin [3]): inactive
–,–,"CCOc1cc2c(cc1O)C(=O)CC[C@@H]1[C@@H]2CC[C@]2(C)[C@@H](OC(C)=O)CC[C@@H]12 [Compound 18, B-Homo-17β-acetoxy-2-ethoxy-3-hydroxyestra-1,3,5(10)-trien-6-one]",–,"Effect on tubulin polymerization / microtubule assembly (tubulin [2]): stimulate microtubule assembly; Effect on glutamate- and MAP-induced tubulin assembly (tubulin [3]): activity was largely retained; Effect on MAP-induced tubulin assembly (tubulin [3]): enhanced tubulin assembly; also recorded: less stimulatory than 13; also recorded: significantly less than that of paclitaxel; Tubulin polymerization inhibition, symbol instead of IC50 (tubulin [4]): *; Tubulin assembly in the absence of GTP (tubulin [5]): has not been observed"
4,222 to 223,"CCOc1cc2c(cc1O)NC(=O)CC1C2CCC2(C)C(O)CCC12 (stereo not drawn) [Compound 29, B-Homo-6-aza-2-ethoxy-3,17β-dihydroxyestra-1,3,5(10)-trien-7-one]",16.2,Effect on tubulin polymerization / microtubule assembly (tubulin [2]): inhibit tubulin polymerization
> 40,–,"CCOc1cc2c(cc1O)NCCC1C2CCC2(C)C(O)CCC12 (stereo not drawn) [Compound 30, B-Homo-6-aza-2-ethoxyestra-1,3,5(10)-triene-3,17β-diol]",49.0,–
25,189 to 191,"CCOc1cc2c(cc1O)N(C(C)=O)CCC1C2CCC2(C)C(O)CCC12 (stereo not drawn) [Compound 32, B-Homo-6-acetyl-6-aza-2-ethoxyestra-1,3,5(10)-triene-3,17β-diol]",35.5,Effect on tubulin polymerization / microtubule assembly (tubulin [2]): inhibit tubulin polymerization
> 40,–,"CCOc1cc2c(cc1O)N(CC)CCC1C2CCC2(C)C(O)CCC12 (stereo not drawn) [Compound 33, B-Homo-6-aza-2-ethoxy-6-ethylestra-1,3,5(10)-triene-3,17β-diol]",50.1,–
–,–,"CC(=O)O[C@H]1C(=O)[C@@]2(C)[C@H]([C@H](OC(=O)c3ccccc3)[C@]3(O)C[C@H](OC(=O)[C@H](O)[C@@H](NC(=O)c4ccccc4)c4ccccc4)C(C)=C1C3(C)C)[C@]1(OC(C)=O)CO[C@@H]1C[C@@H]2O [paclitaxel, Paclitaxel, reference compound]",–,"Critical concentration of tubulin, MAP- and GTP-dependent assembly (tubulin [6]; 30° C., 10 μM drug, MAPs:tubulin 1:3 by weight): 0.06 mg/mL; Critical concentration of tubulin, GTP-dependent, MAP-independent assembly (tubulin [6]; 30° C., 10 μM drug, no MAPs): 0.20 mg/mL; Affinity for tubulin polymers relative to compound 13 (tubulin [6]; from critical concentrations): 7-8 fold; Effect on MAP-induced tubulin assembly (tubulin [3]): much more extensive than that with compound 13; Cold stable microtubules after return to 0° C. for 15 min (tubulin [7]): abundant cold stable microtubules were observed; Assembly reaction when either MAPs or GTP was omitted (tubulin [5]; 10 μM tubulin, 40 μM compound 13 or 10 μM paclitaxel): a reaction was observed in both cases"

Compound,IC50 (tubulin [2]) [µM],melting point [°C],Cytotoxicity (MGM μM) (tumor cells) [µM],also measured
"CCOc1cc2c(cc1OC(C)=O)CCCC1C2CCC2(C)C(OC(C)=O)CCC12 (stereo not drawn) [Compound 12, B-Homo-3,17β-diacetoxy-2-ethoxyestra-1,3,5(10)-triene]",> 40,98 to 100,–,–
"CCOc1cc2c(cc1OC(C)=O)C(=O)CCC1C2CCC2(C)C(O)CCC12 (stereo not drawn) [Compound 19, B-Homo-3-Acetoxy-2-ethoxy-17β-hydroxyestra-1,3,5(10)-trien-6-one]",> 40,–,–,Effect on glutamate- and MAP-induced tubulin assembly (tubulin [3]): inactive
"CCOc1cc2c(cc1O)C(=NO)C[C@@H]1[C@@H]2CC[C@]2(C)[C@@H](OC(C)=O)CC[C@@H]12 [Compound 27, 17β-Acetoxy-2-ethoxy-6-hydroximinoestra-1,3,5(10)-triene-3-ol]",> 40,226 to 227,0.567,–
"CCOc1cc2c(cc1OC(C)=O)N(C(C)=O)CCC1C2CCC2(C)C(OC(C)=O)CCC12 (stereo not drawn) [Compound 31, B-Homo-6-acetyl-6-aza-3,17β-diacetoxy-2-ethoxyestra-1,3,5(10)-triene]",> 40,–,38.0,–
